Experiment [1] relates to Atg5^−/− MEF. The experiment can be described thus: Exosome production (nanoparticle tracking, dynamic light scattering, Western blot), Example 1. Format: cell-based, mouse. To be noted: Chloroquine 100 μM 16 h, NH4Cl 20 mM 30 min, Concanamycin, siRNA. On the technique in general: In western blotting, separated proteins are transferred to a membrane and probed.
Procedure: Exosomes were enriched by differential centrifugation as previously described (Thery et al., 2006). Briefly, cells were cultured in media containing 10% FBS previously depleted of exosomes by centrifugation at 100 000 g for 16 h (Thery et al., 2006). To purify exosomes, supernatant from cell cultures was centrifuged at 300 g (10 min), 2000 g (10 min) and 10,000 g (30 min, SW32 rotor). At each step the supernatant was recovered. After centrifugation at 100 000 g (1 h 10 min, SW32 rotor) the supernatant was removed and the pellet was resuspended. The pellet was washed in PBS by a final centrifugation at 100 000 g (20 min, TLA100.3 rotor). The exosome-enriched pellet was re-suspended in PBS for further analyses.
Preparations of enriched exosomes were analyzed using either a Nanosight (FIG. 1A,C) or a ParticleMetrix Zetaview Nanoparticle tracking instrument (all other graphs). […]
The Zeta View Nanoparticle Tracking instrument (ParticleMetrix) is calibrated for experiments following every instrument start-up. […] If the sample falls within the acceptable reading concentration range, video acquisition and analysis was performed using the following parameters. Acquisition Parameters: Sensitivity (85), Shutter speed (40), Frame rate per second (30), Resolution (Highest), Positions measured (11). […]
The analysis reports containing the particle size (nm) and concentration (particles/ml) were generated automatically. The particles between 45 nm and 105 nm were summed to quantify exosome-sized particles. In experiments in FIG. 5N,O measuring exosome production after treating cells with NH4Cl or Chloroquine for short time periods, background readings from exosome-depleted media alone were subtracted. […]
The subject of experiment [2] is recombinant LC3. As to conditions: 10 nmoles peptide, 100 ng recombinant LC3. The procedure:
(SEQ ID NO: 20). Fifteen μl of Dynabeads® MyOne™ Streptavidin T1 (Cat #65601, ThermoFisher) were washed with PBS, then 10 nmoles of biotinylated peptides and 100 ng of recombinant LC3 were added. The mixture was rotated at 4 C over night. The beads were then washed with PBS 3 times and collected for further western analysis.

The test system of experiment [3] is recombinant LC3. As to conditions: competitive excess of peptide; cell lysate. Here is the method: In brief, 0.5 μg of His-tagged recombinant LC3 (His-tag, Cat #ADI-APR-100-0200, Enzo Life Sciences) was rotated in 50 μl with 5 μl of His-tagged Dynabeads (Cat #10103D, Thermofisher) in a binding/wash buffer (50 mM Sodium Phosphate, pH 8.0, 150 mM NaCl, 0.01% Tween®-20, 0.5% Triton X-100) at room temperature (RT) for 10 min. Then 150 μl of binding/wash buffer containing 5% BSA was added to the tubes and rotated for 5 minutes. Tubes were placed on a magnet and supernatant discarded. Cell lysate (100 ul, 150 ug) collected in Pull-down Buffer (3.25 mM Sodium phosphate pH 7.4, 70 mM NaCl, 0.01% Tween®-20, 0.5% Triton X-100) was incubated on a roller for 10 min. Supernatant was discarded and beads were washed 4 times with 300 μl Binding/Wash Buffer. His-LC3 was eluted with 150 mM Imidazole, 50 mM Sodium phosphate pH 8.0, 300 mM NaCl, 0.01% Tween®-20 with gentle shaking for 5 min. Supernatants were separated from beads on a magnet. The median intensities of bands for p62, ATP6V1E1 and background were quantified over 3 independent experiments using ImageQuantTL (GE Healthcare).
Experiments with competitive peptides were performed as above, except 50 μmoles of peptide was added during incubation with cell lysate. […] (SEQ ID NO: 20).

A further experiment addresses T1, V0-ATPase complex (Mus musculus, UniProt P63082).
T1 construct: endogenous in cells; MEF inferred)
Put plainly: Lysotracker staining of cells with V0-ATPase inhibitors. The experiment is classed as cell-based. As to conditions: MEF; 12 h treatment. The source says:
If increased MVB acidification in Atg5^−/− cells causes the drop in exosome release, blocking acidification of MVB may promote exosome release.

Experiment [4] deals with Atg5^−/− MEF. Put plainly: Exosome production (dynamic light scattering, Western blot), Example 2. The experiment is classed as cell-based, mouse. To be noted: BAF or ConA 12 h. Here is the method:
(§1) Exosomes were enriched by differential centrifugation as previously described (Thery et al., 2006). Briefly, MEF or MDA-MB-231 cells were cultured in media containing FBS depleted of exosomes by centrifugation at 100,000 g for 16 h (Thery et al., 2006). To purify exosomes supernatant from cell cultures was centrifuged at 400 g (7 min), 2000 g (10 min) and 10,000 g (30 min, SW32 rotor). At each step the supernatant was recovered. After centrifugation at 100,000 g (1 h 10 min, SW32 rotor) the supernatant was removed and the pellet was resuspended. The pellet was washed in PBS by a final centrifugation at 100,000 g (20 min, TLA100.3 rotor). The exosome-enriched pellet was re-suspended in PBS for further analyses.
(§2) Preparations of enriched exosomes were analyzed by dynamic light scattering on a Protein Solutions Dynapro Instrument using Dynamics V6 software. Data were acquired every 10 seconds at 4° C. and 10% laser power for at least 200 seconds per sample. The intensity (Cnt/s) and size (nm) were generated automatically by the instrument.
Preparations of enriched exosomes were analyzed using a Nanosight LM10 instrument with Nanoparticle Tracking Analysis software Version 2.3. Measurement temperature was 22° C. and time setting was 90 seconds. The analysis conditions were set as: Blur 3×3, Detection Threshold 3, Min Track Length 9, and Min Expected Size 30 nm. […]

The next experiment deals with stress granules (G3BP1+). Put plainly: Stress granules remaining with scFv-LC3 fusion with or without mTOR inhibitor INK128. Format: cell-based. To be noted: arsenite 1 h, recovery 30 min, G3BP1+ staining. Here is the method: Nucleic acids encoding the fusion constructs were stably transduced into cells using lentivirus to generate stable expression using the CMV promoter. Cells were cultured in Lonza Ultraculture medium for 24 h and exosomes were harvested by tangential flow filtration concentration and dialysis on a 750 kDa pore size. Exosomes were then incubated with target cells between 2-24 h. After this time point cells were lysed and levels of cytoplasmic TDP-43 were measured by western blot after elimination of nuclei. […] for 30 min and cells were fixed for immunofluorescence to measure the persistence of stress granules using antibodies targeting G3BP1, PABP or DDX3. The number of stress granules were compared to fusions like scFv VH7 with and without LC3. In some experiments cells were pre-treated for 2-24 h with mTOR inhibitors to induce autophagy.
Experiments were performed to assess whether elimination of anti-TDP-43 VH7 scFv targets by autophagy, triggered by scFv-LC3 fusion constructs, could be further enhanced by treatment with an autophagy-activating agent. In this example, mTOR inhibitor INK128 was used as the autophagy-activating agent.
Cells were transfected with scFv versus TDP-43 fused to LC3, and treated or not treated with the mTOR inhibitor INK128 to assess autophagy activation. […]

The subject of another experiment is exosomes. The experiment can be described thus: Packaging of LC3 fusion proteins into exosomes (luciferase light, Western blot of exosomes). The experiment is classed as cell-based. The source says:
FIG. 28 D and E show Western blots of exosomes transfected with Luciferase or Luciferase-LC3 fusion (D), or dsRed or dsRed-LC3 fusion (E). […] The scFv in this experiment was anti-TDP-43 VH7 antibody scFv. Detection of the fusion was by Western blot with anti-LC3 antibody or antibody vs. HA tag incorporated into the linker region in the fusion. […] In FIG. 29 C, expression of scFv-LC3 construct in cells was achieved using lentivirus. […] In FIG. 29 C, cells were expressing anti-TDP-43 antibody scFv clone Vh7. […] The inventors hypothesized that exosomes may deliver intrabody-LC3 chimeras with high efficiency to tissues like liver, small intestine and kidney (IV), and if injected (for example) into the spinal cord (as ASOs or AAV in patients in neurodegeneration), throughout the spinal cord and the brain. […]
Nucleic acids encoding the fusion constructs were stably transduced into cells using lentivirus to generate stable expression using the CMV promoter. […] After this time point cells were lysed and levels of cytoplasmic TDP-43 were measured by western blot after elimination of nuclei. […]
The data are for 3 scFv fused to LC3 derived from anti-TDP-43 VH7, anti-TDP-43 41D1, and anti-Tau 4E4. […] Cells were transduced with scFv-LC3 conjugates, and exosomes were purified from these and analyzed by Western blot. […]

A further experiment relates to wild-type MEF. Put plainly: Exosome production (dynamic light scattering, Western blot) with pp242. Format: cell-based, mouse. To be noted: pp242 1 μM. Here is the method:
as §1, §2

No end group written: not given here. *: point of attachment. Biotin = O=C1N[C@H]2[C@H](CS[C@H]2CCCCC(=O)*)N1

T1 sequence (P51863 whole entry): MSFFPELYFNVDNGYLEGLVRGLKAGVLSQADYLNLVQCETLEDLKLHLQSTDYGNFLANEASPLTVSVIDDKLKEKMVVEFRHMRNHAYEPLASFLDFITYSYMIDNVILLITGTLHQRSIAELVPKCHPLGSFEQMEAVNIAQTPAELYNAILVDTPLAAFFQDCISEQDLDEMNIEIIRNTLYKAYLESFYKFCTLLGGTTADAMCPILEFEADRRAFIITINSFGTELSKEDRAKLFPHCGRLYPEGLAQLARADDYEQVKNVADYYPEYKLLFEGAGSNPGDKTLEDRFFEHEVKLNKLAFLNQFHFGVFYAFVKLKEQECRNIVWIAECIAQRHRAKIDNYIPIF
T1 sequence (Q9Z1G4 whole entry, further chain): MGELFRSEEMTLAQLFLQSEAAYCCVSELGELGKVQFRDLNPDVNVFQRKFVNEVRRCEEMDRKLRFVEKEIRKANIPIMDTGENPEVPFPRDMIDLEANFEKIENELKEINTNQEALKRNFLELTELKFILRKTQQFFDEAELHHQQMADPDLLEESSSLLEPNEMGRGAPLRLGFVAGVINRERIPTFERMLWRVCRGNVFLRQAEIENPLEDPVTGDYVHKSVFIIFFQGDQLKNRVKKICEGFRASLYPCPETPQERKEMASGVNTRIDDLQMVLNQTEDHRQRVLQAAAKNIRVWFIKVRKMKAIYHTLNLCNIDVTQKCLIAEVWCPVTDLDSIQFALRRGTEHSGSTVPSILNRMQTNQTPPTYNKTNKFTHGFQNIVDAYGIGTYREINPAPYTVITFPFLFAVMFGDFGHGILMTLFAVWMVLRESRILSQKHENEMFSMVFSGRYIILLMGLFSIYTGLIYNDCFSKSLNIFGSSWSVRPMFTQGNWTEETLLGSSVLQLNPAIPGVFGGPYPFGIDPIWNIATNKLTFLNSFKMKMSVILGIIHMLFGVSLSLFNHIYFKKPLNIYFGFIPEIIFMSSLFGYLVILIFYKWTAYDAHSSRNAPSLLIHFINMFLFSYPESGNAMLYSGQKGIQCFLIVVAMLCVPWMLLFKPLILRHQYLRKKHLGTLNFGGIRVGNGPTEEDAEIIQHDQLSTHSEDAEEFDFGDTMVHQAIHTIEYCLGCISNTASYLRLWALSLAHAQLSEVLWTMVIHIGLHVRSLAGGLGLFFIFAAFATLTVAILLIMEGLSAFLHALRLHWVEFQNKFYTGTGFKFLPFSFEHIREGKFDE
T1 sequence (Q91V37 whole entry, further chain): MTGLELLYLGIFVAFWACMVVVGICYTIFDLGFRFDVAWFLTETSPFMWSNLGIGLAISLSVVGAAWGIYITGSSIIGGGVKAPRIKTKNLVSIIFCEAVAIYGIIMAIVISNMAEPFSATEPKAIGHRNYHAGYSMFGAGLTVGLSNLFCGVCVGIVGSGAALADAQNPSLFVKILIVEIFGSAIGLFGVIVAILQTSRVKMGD
T1 sequence (P63082 whole entry): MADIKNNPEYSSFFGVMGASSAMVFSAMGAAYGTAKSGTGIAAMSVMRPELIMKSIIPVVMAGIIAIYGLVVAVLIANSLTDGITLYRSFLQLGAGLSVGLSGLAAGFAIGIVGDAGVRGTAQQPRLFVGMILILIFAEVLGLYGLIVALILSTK

Turning to `Cl.N` [NH4Cl], the “exosome production in Atg5^−/− cells” value with Atg5^−/− MEF [1] is “rescued exosome production”.
Turning to “Biotin-RCRKAILPLQKA [control mutated peptide]”, the “pulldown of recombinant LC3 by biotinylated peptide” value (from here on “pulldown of recombinant LC3”) in the experiment with recombinant LC3 [2] is listed as “bound at background levels”.
Take “biotin-SGGDDDWTHLSS [p62 LIR motif peptide]”: in the experiment on recombinant LC3 [3], the “competition of ATP6V1E1 pulldown by recombinant LC3” value is given as “had no effect” and the “competition of p62 pulldown by recombinant LC3” value is “competed with endogenous p62 binding”. Moreover, the “pulldown of recombinant LC3” value with recombinant LC3 [2] is “pulled down recombinant LC3”.
In the case of Concanamycin A, the “staining of cells with Lysotracker” value on V0-ATPase complex is reported as “abrogated staining of cells with Lysotracker”. Besides, the “exosome production of Atg5^−/− cells” value with Atg5^−/− MEF [4] is given as “restored exosome production”. For the same molecule, the “exosome production in Atg5^−/− cells” value with Atg5^−/− MEF [1] is “rescued exosome production”.
Consider `CO/C1=C\C(C)=C\[C@@H](C)[C@@H](O)[C@@H](C)C/C(C)=C/C=C/[C@H](OC)[C@@H]([C@@H](C)[C@@H](O)[C@H](C)[C@@]2(O)C[C@@H](O)[C@H](C)[C@@H](C(C)C)O2)OC1=O` [Bafilomycin A1], for which the “staining of cells with Lysotracker” value at V0-ATPase complex is “abrogated staining of cells with Lysotracker”. Besides, the “exosome production of Atg5^−/− cells” value in the experiment with Atg5^−/− MEF [4] was “restored exosome production”.
With `CC(C)n1nc(-c2ccc3oc(N)nc3c2)c2c(N)ncnc21` [INK128], in the experiment with stress granules (G3BP1+), the “% of stress granules remaining” value is recorded as “did not have a measureable effect”.
Turning to `CCN(CC)CCCC(C)Nc1ccnc2cc(Cl)ccc12` (centres unmarked) [Chloroquine], the “exosome production in Atg5^−/− cells” value with Atg5^−/− MEF [1] was “rescued exosome production”.
Turning to “HJ8.5-LC3a: anti-Tau scFv HJ8.5 fused via linker and HA tag to LC3a (SEQ ID NO: 57)”, the “packaging of construct into exosomes” value in the experiment with exosomes is reported as “packaged into exosomes”.
On to “Biotin-RCRKQDFPLVKA [putative ATP6V1E1 LIR motif peptide]”, for which, in the experiment on recombinant LC3 [3], the “competition of ATP6V1E1 pulldown by recombinant LC3” value is listed as “did not affect binding” and the “competition of p62 pulldown by recombinant LC3” value is “did not affect binding”. The “pulldown of recombinant LC3” value in the experiment on recombinant LC3 [2] is given as “bound at background levels”.
Turning to `CC(C)n1nc(-c2cc3cc(O)ccc3[nH]2)c2c(N)ncnc21` [pp242], the exosome production entry in the experiment on wild-type MEF is recorded as “increased exosome production”.
